Patent US20230047816A1 (priority 2018, published 2023)
“Also recorded” adds a separate entry of the source.

Assays:
[1] = system: mouse primary cortical neurons; assay: NADPH/NADP upon excitotoxic stimuli; assay type: cell-based; settings: glutamate 100 μM 10 minutes, then inhibitor 0.01 μM 24 hours
Procedure: Neurons were then washed and further incubated in culture medium with the PFKFB3 inhibitors for 24 hours. A colorimetric NADP/NADPH assay kit (Abcam) was used. Cells were resuspended in 500 μl of NADP/NADPH extraction buffer, vortexed and centrifuged at 14,000 rpm for 5 minutes to remove insoluble material. The supernatant was used for NADPH +plus NADP+ measurement. NADPH was determined in 200 μl of the supernatant, after […] 60° C. for 30 minutes to decompose NADP+. Actual NADP and NADPH+ concentrations were calculated by extrapolating values to a NADPH standard curve (0-100 pmol/well).

[2] = system: iPSC-derived neural precursor cells (NPC) from CLN7 patients; assay: Patient-derived neural precursor cells, ATP5A immunocytochemistry; assay type: cell-based, human
Procedure: iPSC were generated from two CLN7 patients (Pa380 and Pa474). then characterized and differentiated to NPC as previously described39. […]
NPCs were fixed with 100% iced-cold methanol for 5 min and incubated in blocking solution (1% (v/v) normal goat serum, 0.1% (w/v) bovine serum albumin (BSA), 0.1% (v/v) Triton X-100 in DPBS). […] Slides were mounted with VECTASHIELD Mounting Medium with DAPI, incubated for 24 h at 4° C. and imaged with a Zeiss Axio Imager M2 fluorescence microscope or under an inverted microscope (Nikon; Eclipse Ti-E) equipped with a pre-centred fibre illuminator (Nikon; Intensilight C-HGFI), B/W CCD digital camera (Hamamatsu; ORCA-E.R.). Fluorescence quantification was performed. after appropriate thresholding using the ImageJ software (NIH). The pixel intensity profile of ATP5A immunodecoration was analyzed across the maximal axis of the cell that departs from the nucleus, using the plot profile plugin of ImageJ software. […]

[3] = system: neurons transfected with PFK1-M; assay: Excitotoxic insult in neurons overexpressing PFK1-M; assay type: cell-based, mouse; settings: PFK1-M (muscle isoform) overexpression
Procedure: To address whether the protection caused by PFKFB3 inhibitors was a consequence of hampering the glycolytic activation (FIG. 4B), we aimed to investigate whether the overexpression of the glycolytic enzyme, PFK1-muscle isoform, could revert PFKFB3 inhibitors-mediated neuroprotection. […] Accordingly, neurons were first transfected with the full-length cDNA encoding for PFK1-M, and then subjected to the excitotoxic insult. Cells were transfected with 1.6 μg/mL of a pIRES2-EGFP plasmid vector (Invitrogen) harbouring a full-length cDNA coding for the human muscle 6-phosphofructo-1-kinase muscle isoform (PFK1-M) (accession number, NM_000289.1) using Lipofectamine LTX-PLUS Reagent (Life Technologies) according with manufacturer's protocol. Transfections were performed 24 hours before cells collection. Control cells were transfected with the empty vector. Cells were treated with excitotoxic stimuli as described above.

[4] = system: mouse cortical primary neurons; assay: MG132-induced neuronal apoptosis (annexin V/7-AAD flow cytometry); assay type: cell-based; settings: MG132 24 hours; inhibitor 0.01 μM
Procedure: Primary cultures of C57BL/6 mice cortical neurons were prepared from fetal animals of 14.5 days of gestation, seeded at 1.8·10^5 cells/cm^2 in plastic plates coated with poly-D-lysine (10 mg/ml) and incubated in Neurobasal (Life Technologies) supplemented with 2 mM glutamine, 5 mM of glucose, 0.25 mM pyruvate and 2% B27 supplement (Life Technologies). Cells were incubated at 37° C. in a humidified 5% CO2-containing atmosphere. At 72 hours after plating, medium was replaced using Neurobasal (Life Technologies) supplemented with 2 mM glutamine, 5 mM glucose, 0.25 mM pyruvate and 2% B27 supplement (Life Technologies) minus antioxidants (MAO; i.e., lacking vitamin E, vitamin E acetate, superoxide dismutase, catalase and glutathione). […] APC/C-conjugated annexin-V and 7-amino-actinomycin D (7-AAD) (Becton Dickinson Biosciences, BDB, San Jose, Calif., USA) were used to determine quantitatively the percentage of apoptotic neurons by flow cytometry. Cells were stained with annexin V-APC and 7-AAD, following the manufacturer's instructions, and were analysed on a FACScalibur™ flow cytometer (15 mW argon ion laser tuned at 488 nm; CellQuest software, Becton Dickinson Biosciences) using the CellQuest software (BDB). Both GFP+ and GFP− cells were analyzed separately, and the annexin V-APC-stained cells that were 7-AAD-negative were considered to be apoptotic.

Cc1noc(C)c1Cn1cc(C#N)c2cc(Oc3ccc(NC(=O)[C@@H]4CCCN4)cc3)ccc21 [AZ67, (2S)-N-[4-({3-cyano-1-[(3,5-dimethyl-1,2-oxazol-4-yl)methyl]-1H-indol-5-yl}oxy)phenyl]pyrrolidine-2-carboxamide]
NADPH oxidation / NADPH/NADP ratio [1]: prevented; also recorded: restore NADPH/NADP ratio
loss of perinuclear mitochondria [2]: rectified the loss of perinuclear mitochondria
neuroprotection under PFK1-M overexpression [3]: abolish the neuroprotection; also recorded: abrogates the neuroprotective effect
prevention of neuronal apoptosis caused by MG132 [4]: ~45%
